Test results as given in patent US9695155B2, “Herbicidal substituted pyrimidinyloxy benzene compounds” (E. I. DU PONT DE NEMOURS AND COMPANY, priority 2013, dated 2017).

Assays:
[1] = test system: blackgrass; assay: Test C preemergence; assay type: in vivo, Alopecurus myosuroides; conditions: for Blackgrass plant response rating: preemergence; for Plant response rating, Blackgrass: Preemergence, 31 g ai/ha, scale 0 to 100, 0 no effect, 100 complete control
How it was run: (§1)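 Sown in loam/sand → sprayed pre-emergence; or grown to 1–4 leaves in peat mix → sprayed post-emergence. Same solvent/surfactant formulation both ways. Greenhouse 13–15 d. Score 0–100 visual.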

[2] = test system: oilseed rape; assay: Test C preemergence; assay type: in vivo, Brassica napus; conditions: for Oilseed Rape plant response rating: preemergence
From the text: (§2) Seeds of plant species selected from blackgrass (Alopecurus myosuroides), Italian ryegrass (Lolium multiflorum), wheat, winter (winter wheat, Triticum aestivum), galium (catchweed bedstraw, Galium aparine), corn (Zea mays), large (Lg) crabgrass (Digitaria sanguinalis), giant foxtail (Setaria faberii), johnsongrass (Sorghum halepense), lambsquarters (Chenopodium album), morningglory (Ipomoea coccinea), yellow nutsedge (Cyperus esculentus), pigweed (Amaranthus retroflexus), ragweed (common ragweed, Ambrosia elatior), soybean (Glycine max), barnyardgrass (Echinochloa crus-galli), oilseed rape (Brassica napus), waterhemp (common waterhemp, Amaranthus rudis), kochia (Kochia scoparia), wild oat (Avena fatua), surinam grass (Brachiaria decumbens), foxtail, green (green foxtail, Setaria viridis), goosegrass (Eleusine indica), bromegrass, downy (downy bromegrass, Bromus tectorum), nightshade (eastern black nightshade, Solanum ptycanthum), cocklebur (common cocklebur, Xanthium strumarium), cupgrass, woolly (woolly cupgrass, Eriochloa villosa), bermudagrass (Cynodon dactylon), sunflower, (common oilseed sunflower, Helianthus annuus), Russian thistle (Salsola kali), and velvetleaf (Abutilon theophrasti) were planted into a blend of loam soil and sand and treated preemergence with test chemicals formulated in a non-phytotoxic solvent mixture which included a surfactant.
(§3) At the same time, plants selected from these crop and weed species and also barley, winter (winter barley, Hordeum vulgare), windgrass (Apera spica-venti), chickweed (common chickweed, Stellaria media), deadnettle (henbit deadnettle, Lamium amplexicaule), and canarygrass (littleseed canarygrass, Phalaris minor) were planted in pots containing Redi-Earth® planting medium (Scotts Company, 14111 Scottslawn Road, Marysville, Ohio 43041) comprising spaghnum peat moss, vermiculite, wetting agent and starter nutrients and treated with postemergence applications of test chemicals formulated in the same manner. Plants ranged in height from 2 to 18 cm (1- to 4-leaf stage) for postemergence treatments. Treated plants and controls were maintained in a greenhouse for 13 to 15 days, after which time all species were compared to controls and visually evaluated. Plant response ratings, summarized in Table C, are based on a scale of 0 to 100 where 0 is no effect and 100 is complete control. A dash (-) response means no test result.

[3] = test system: soybean; assay: Test C preemergence; assay type: in vivo, Glycine max; conditions: for Soybean plant response rating: preemergence
From the text: as §2, §3

[4] = test system: large (Lg) crabgrass; assay: Test C postemergence; assay type: in vivo, Digitaria sanguinalis; conditions: for Crabgrass, Large plant response rating / Plant response rating, Crabgrass, Large: scale 0 to 100 (0 no effect, 100 complete control)
How it was run: as §1

[5] = test system: giant foxtail; assay: Test A postemergence; assay type: in vivo, Setaria faberii; conditions: 0 to 100 scale where 0 is no effect and 100 is complete control
How it was run: (§4)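 Pre- and postemergence greenhouse screen. Soil: loam + sand. Spray carrier: solvent mixture, non-phytotoxic, with surfactant. Post timing at 1–2 leaves, height 2–10 cm. Readout: visual injury on a 0–100 scale roughly 10 days after application, untreated plants as reference.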

[6] = test system: blackgrass; assay: Test C postemergence; assay type: in vivo, Alopecurus myosuroides; conditions: for Blackgrass plant response rating / Plant response rating, Blackgrass: scale 0 to 100 (0 no effect, 100 complete control)
How it was run: as §1

[7] = test system: wheat; assay: Test A postemergence; assay type: in vivo, Triticum aestivum; conditions: 0 to 100 scale where 0 is no effect and 100 is complete control
How it was run: as §4

[8] = test system: barnyardgrass; assay: Test C preemergence; assay type: in vivo, Echinochloa crus-galli; conditions: for Barnyardgrass plant response rating: preemergence; for Plant response rating, Barnyardgrass: Preemergence, 31 g ai/ha, scale 0 to 100, 0 no effect, 100 complete control
How it was run: as §1

[9] = test system: johnsongrass; assay: Test C preemergence; assay type: in vivo, Sorghum halepense; conditions: for Johnsongrass plant response rating: preemergence
How it was run: as §1

[10] = test system: morningglory; assay: Test A preemergence; assay type: in vivo, Ipomoea spp.; conditions: for Morningglory plant response rating: 500 g ai/ha
How it was run: as §4

[11] = test system: morningglory; assay: Test C preemergence; assay type: in vivo, Ipomoea coccinea; conditions: for Morningglory plant response rating: preemergence
How it was run: as §1

[12] = test system: ragweed; assay: Test C preemergence; assay type: in vivo, Ambrosia elatior; conditions: for Ragweed plant response rating: preemergence
How it was run: as §1

[13] = test system: barnyardgrass; assay: Test A postemergence; assay type: in vivo, Echinochloa crus-galli; conditions: 0 to 100 scale where 0 is no effect and 100 is complete control
How it was run: as §4

[14] = test system: Italian ryegrass; assay: Test C preemergence; assay type: in vivo, Lolium multiflorum; conditions: for Ryegrass, Italian plant response rating: preemergence
How it was run: as §1

[15] = test system: oilseed rape; assay: Test C postemergence; assay type: in vivo, Brassica napus
How it was run: as §1

[16] = test system: yellow nutsedge; assay: Test C preemergence; assay type: in vivo, Cyperus esculentus; conditions: for Nutsedge, Yellow plant response rating: preemergence
From the text: as §2, §3

[17] = 16 g ai/ha, scale 0 to 100 (0 no effect, 100 complete control)
[18] = 62 g ai/ha, scale 0 (no effect) to 100 (complete control)
[19] = 125 g ai/ha, scale 0 (no effect) to 100 (complete control)
[20] = 16 g ai/ha, postemergence, 0 is no effect, 100 is complete control
[21] = 31 g ai/ha, postemergence, visual rating, 13 to 15 days
[22] = 125 g ai/ha, postemergence, visual rating
[23] = Postemergence, 62 g ai/ha, scale 0 to 100 (0 no effect, 100 complete control)
[24] = Preemergence, 31 g ai/ha, scale 0 to 100, 0 no effect, 100 complete control
[25] = 16 g ai/ha, postemergence, visual rating, 13 to 15 days
[26] = Postemergence, 31 g ai/ha, 13 to 15 days

In the case of Fc1cnc(Oc2cccc(C(F)F)c2-n2cc(C(F)(F)F)cn2)nc1 [Compound 164], the “Blackgrass plant response rating” value [1, 17] is reported as 0, the “Blackgrass plant response rating” value [1, 18] is reported as 90 and the “Blackgrass plant response rating” value [1, 19] is reported as 90. For the same compound, the “Plant response rating, Blackgrass” value [1] was 50, the “Oilseed Rape plant response rating” value [2, 17] was 70 and the “Oilseed Rape plant response rating” value [2, 18] was 100. The “Oilseed Rape plant response rating” value [2, 19] was 100, the “Soybean plant response rating” value [3, 17] was 0 and the “Soybean plant response rating” value [3, 18] was 65. The “Soybean plant response rating” value [3, 19] was 95, the “Plant response rating (0 to 100), Crabgrass, Large” value [4, 20] was 5 and the “Crabgrass, Large plant response rating” value [4, 21] was 5. For the same compound, the “Plant response rating, Crabgrass, Large” value [4, 22] was 10, the “Plant response rating, Crabgrass, Large” value ([4]; Postemergence, 62 g ai/ha) was 5 and the “Foxtail, Giant plant response rating” value ([5]; 125 g ai/ha) was 90. The “Plant response rating, Foxtail, Giant” value ([5]; 500 g ai/ha) was 100, the “Plant response rating (0 to 100), Blackgrass” value [6, 20] was 0 and the “Blackgrass plant response rating” value [6, 21] was 0. The “Plant response rating, Blackgrass” value [6, 22] was 15, the “Plant response rating, Blackgrass” value ([6]; Postemergence, 62 g ai/ha) was 5 and the “Wheat plant response rating” value ([7]; 125 g ai/ha) was 70. The “Plant response rating, Wheat” value ([7]; 500 g ai/ha) was 90, the “Barnyardgrass plant response rating” value [8, 17] was 15 and the “Barnyardgrass plant response rating” value [8, 18] was 98. For the same compound, the “Barnyardgrass plant response rating” value [8, 19] was 100, the “Plant response rating, Barnyardgrass” value [8] was 70 and the “Johnsongrass plant response rating” value [9, 17] was 5. The “Johnsongrass plant response rating” value [9, 18] was 75, the “Johnsongrass plant response rating” value [9, 19] was 80 and the “Morningglory plant response rating (0 to 100 scale)” value ([10]; 125 g ai/ha) was 80. The “Morningglory plant response rating” value ([10]; 0 to 100 scale where 0 is no effect and 100 is complete control) was 100, the “Morningglory plant response rating” value [11, 17] was 10 and the “Morningglory plant response rating” value [11, 18] was 85. The “Morningglory plant response rating” value [11, 19] was 100, the “Ragweed plant response rating” value [12, 17] was 0 and the “Ragweed plant response rating” value [12, 18] was 75. For the same compound, the “Ragweed plant response rating” value [12, 19] was 85, the “Barnyardgrass plant response rating” value ([13]; 125 g ai/ha) was 70 and the “Plant response rating, Barnyardgrass” value ([13]; 500 g ai/ha) was 100. For the same compound, the “Ryegrass, Italian plant response rating” value [14, 17] was 0, the “Ryegrass, Italian plant response rating” value [14, 18] was 65 and the “Ryegrass, Italian plant response rating” value [14, 19] was 98. For the same compound, the “Plant response rating (0 to 100), Oilseed Rape” value [15, 20] was 10, the “Oilseed Rape plant response rating” value ([15]; 31 g ai/ha, postemergence, visual rating, scale 0 to 100 (0 no effect, 100 complete control), 13 to 15 days) was 10 and the “Plant response rating, Oilseed Rape” value ([15]; 125 g ai/ha, postemergence, visual rating, scale 0 to 100 (0 no effect, 100 complete control)) was 60. For the same compound, the “Plant response rating, Oilseed Rape” value [15, 23] was 55, the “Nutsedge, Yellow plant response rating” value [16, 17] was 0 and the “Nutsedge, Yellow plant response rating” value [16, 18] was 20. The “Nutsedge, Yellow plant response rating” value [16, 19] was 25.

In the case of Fc1cnc(Oc2cccc(C(F)F)c2-n2cc(Cl)cn2)nc1 [Compound 94], the “Blackgrass plant response rating” value [1, 17] is reported as 5, the “Blackgrass plant response rating” value [1, 18] is reported as 90 and the “Blackgrass plant response rating” value [1, 19] is reported as 90. The “Plant response rating, Blackgrass” value [1] was 20, the “Oilseed Rape plant response rating” value [2, 17] was 85 and the “Oilseed Rape plant response rating” value [2, 18] was 98. For the same compound, the “Oilseed Rape plant response rating” value [2, 19] was 98, the “Plant response rating, Oilseed Rape” value [2, 24] was 98 and the “Soybean plant response rating” value [3, 17] was 35. The “Soybean plant response rating” value [3, 18] was 85, the “Soybean plant response rating” value [3, 19] was 95 and the “Plant response rating, Soybean” value [3, 24] was 50. The “Crabgrass, Large plant response rating” value [4, 25] was 5, the “Plant response rating (0 to 100), Crabgrass, Large” value ([4]; 125 g ai/ha, postemergence) was 10 and the “Plant response rating, Crabgrass, Large” value [4, 26] was 5. The “Plant response rating, Crabgrass, Large” value ([4]; Postemergence, 62 g ai/ha) was 10, the “Plant response rating, Foxtail, Giant” value ([5]; 125 g ai/ha) was 70 and the “Plant response rating, Foxtail, Giant” value ([5]; 500 g ai/ha) was 90. The “Blackgrass plant response rating” value [6, 25] was 0, the “Plant response rating (0 to 100), Blackgrass” value ([6]; 125 g ai/ha, postemergence) was 5 and the “Plant response rating, Blackgrass” value [6, 26] was 5. The “Plant response rating, Blackgrass” value ([6]; Postemergence, 62 g ai/ha) was 5, the “Plant response rating, Wheat” value ([7]; 125 g ai/ha) was 0 and the “Plant response rating, Wheat” value ([7]; 500 g ai/ha) was 50. For the same compound, the “Barnyardgrass plant response rating” value [8, 17] was 5, the “Barnyardgrass plant response rating” value [8, 18] was 85 and the “Barnyardgrass plant response rating” value [8, 19] was 100. The “Plant response rating, Barnyardgrass” value [8] was 10, the “Johnsongrass plant response rating” value [9, 17] was 0 and the “Johnsongrass plant response rating” value [9, 18] was 35. The “Johnsongrass plant response rating” value [9, 19] was 70, the “Plant response rating, Johnsongrass” value [9, 24] was 25 and the “Plant response rating, Morningglory” value ([10]; 125 g ai/ha, 0 to 100 scale where 0 is no effect and 100 is complete control) was 40. For the same compound, the “Morningglory plant response rating” value ([10]; 0 to 100 scale, 0 no effect, 100 complete control, approx. 10 days) was 90, the “Morningglory plant response rating” value [11, 17] was 0 and the “Morningglory plant response rating” value [11, 18] was 40. For the same compound, the “Morningglory plant response rating” value [11, 19] was 90, the “Plant response rating, Morningglory” value [11, 24] was 30 and the “Ragweed plant response rating” value [12, 17] was 0. The “Ragweed plant response rating” value [12, 18] was 10, the “Ragweed plant response rating” value [12, 19] was 25 and the “Plant response rating, Ragweed” value [12, 24] was 0. The “Plant response rating, Barnyardgrass” value ([13]; 125 g ai/ha) was 20, the “Plant response rating, Barnyardgrass” value ([13]; 500 g ai/ha) was 90 and the “Ryegrass, Italian plant response rating” value [14, 17] was 0. The “Ryegrass, Italian plant response rating” value [14, 18] was 10, the “Ryegrass, Italian plant response rating” value [14, 19] was 50 and the “Plant response rating, Ryegrass, Italian” value [14, 24] was 0. For the same compound, the “Plant response rating (0 to 100), Oilseed Rape” value ([15]; 125 g ai/ha, postemergence) was 80, the “Plant response rating, Oilseed Rape” value ([15]; Postemergence, 31 g ai/ha, scale 0 to 100 (0 no effect, 100 complete control), 13 to 15 days) was 50 and the “Plant response rating, Oilseed Rape” value [15, 23] was 50. For the same compound, the “Nutsedge, Yellow plant response rating” value [16, 17] was 0, the “Nutsedge, Yellow plant response rating” value [16, 18] was 55 and the “Nutsedge, Yellow plant response rating” value [16, 19] was 65. The “Plant response rating, Nutsedge, Yellow” value [16, 24] was 0.
